The text below walks through data of US7258861B2, “TNF-derived peptides for use in treating oedema” (Innogenetics N.V., priority 2001, dated 2007).

Data set [1] in a line: Chloride efflux from SPQ-containing liposomes. The settings on record: 100% EPG liposomes, pH 6.1, 3 μg/ml. On the procedure:
Preparation of liposomes. Large unilamellar liposomes were prepared by reverse phase evaporation as previously described (Vecsey-Semjen et al., 1996). Liposomes were prepared of either 100% egg phosphatidylglycerol (EPG) or a mixture of EPC and EPG (1:1 W/W) in a buffer containing 100 mM KCl, 20 mM N-[2-Hydroxyethyl]piperazine-N′-[2-ethane-sulfonic acid] (HEPES), pH 7.4 and 1.5 mg/ml of 6-methoxy-N-(3-sulfopropyl)quinolinium (SPQ).
Choride efflux measurements. All fluorescence experiments were carried out using a PTI spectrofluorometer equipped with a thermostated cell holder (37° C.). The dye was excited at 350 nm and emission was recorded at 422 nm, both excitation and emission band widths were set to 5 nm. Liposomes were diluted to a final concentration of 50 μg/ml in a solution containing 100 mM KNO3 and 20 mM MES pH 6.1 or 20 mM HEPES, pH 7.4. Wild type and mutant TNF were added to a final concentration of 3 μg/ml.

A further data set has as its system normal rats. The settings on record: instillation in normal rats, over 1 hour; cited from earlier work.
The nature of data set [2]: Quenching of tryptophan fluorescence by brominated lipids. The settings on record: acidic pH. The source says:
In order to investigate whether chloride efflux was due to membrane binding or membrane insertion of TNF, we have analyzed whether brominated lipids were able to quench the intrinsic fluorescence of TNF and mutTNF upon membrane interaction. Brominated lipids have been useful in determining the topology of membrane proteins (Bolon et al., 1990) (Markello et al., 1985) as well as studying the membrane interaction of pore-forming toxins (Gonzalez-Manas et al., 1992) (Van der Goot et al., 1991) (Vecsey-Semjen et al., 1997). TNF contains two tryptophan residues, one at the top of the receptor binding domain and one at the top of the so called tip domain. If the tip of the TNF trimer were to insert into the lipid bilayer, the fluorescence of Trp-113 should be quenched upon insertion into liposomes composed of dioleoylphosphatidylglycerol that had bromines attached at positions 9 and 10 of the acyl chains. We have indeed previously observed that tryptophans located at the boundary between the lipid head groups and the acyl chains were succeptible to bromide quenching.

In data set [3] the test system is ex vivo instilled rat lung. Kind of data set: Ex vivo rat flooded lung, model of hydrostatic edema. On the procedure: In this model edema is induced by instillating 2 ml of 0.9% NaCl solution intratracheally. Alternatively, edema formation can be modulated by varying the height of the venous outflow and the perfusion buffer containing reservoir, or alternatively by varying the time the lung is exposed to the elevated pressure. […] The clearance of alveolar fluid from the lung is calculated by means of measuring the concentration of HSA, which is added to the instillate over time. Alternatively, the over time weight loss as a measure of edema resorption (high weight loss is high liquid clearance), of the artificially instilled lung can be measured. The lung tidal volume, compliance and weight are monitored continuously during the experiment. At the end of the experiment bronchoalveolar fluid and supernatant of lung homogenate is taken for measurement of inflammatory mediators.
The lungs of female Wistar rats (weight 200–250 g; Harlan-Winkelmann, Borchen, Germany) are prepared after terminal i.p. anesthesia by 160 mg/kg pentobarbitural —Na (Merial Ltd, Halbermoos, Germany) and perfused as described by Uhlig and Wolin (1994), and by Uhlig and von Bethmann (1997). All equipment is obtained from Hugo Sachs Electronics (March-Hugstetten, Germany). […] As perfusion medium, a Krebs-Henseleit buffer (38° C.) containing 2% bovine serum albumin (Fraction V, Scrva. Heidelberg, Germany), 0.1% glucose (Riedel-de-Haën Inc., Seelze, Germany), and 0.3% HEPES (ICN Biomedicals Inc., Ohio, USA) is used. The total amount of recirculating buffer is 100 ml. The lungs are suspended by the trachea and ventilated by negative pressure ventilation (inspiratory pressure: −7 cm H2O, expiratory pressure: −2 cm H2O) with 80 breaths per minute resulting in a tidal volume of approximately 2 ml. Every 5 minutes, a deep inspiratory breath (−20 cm H2O) is performed. Artificial thorax chamber pressure is measured with a differential pressure transducer (Validyne DP 45-14), and an air flow velocity with a pneumotachograh tube (Fleisch Type 0000) connected to a differential pressure transducer (Validyne DP 45-15). The perfusate flow (Narcomatic RT-500) and the arterial and venous pressure (Statham P23BB) are continuously monitored. The pH of the perfusate before entering the lung is kept at 7.25 to 7.35 by automatic bubbling of the buffer with CO2 as soon as the pH exceeds this range. A weight transducer is integrated into the chamber lid which allows the continuous assessment of lung weight. Data are recorded on a Pentium II computer using the Mathlab Sofware package (Mathworks, Inc., Nattick Mass., USA). For lung mechanics, the data are analyzed by applying the following formula: P=1/C*VT+RLdV/dT
Where P is chamber pressure, C pulmonary compliance, VT tidal volume, and RL airway resistance. All lung physiology parameters were normalized to time point 0, i.e. after the end of the preconditioning perfusion of 40 minutes.

The subject of the next data set is isolated rat lungs. Kind of data set: Isolated blood perfused flooded rat lung (weight, lung mechanics, PV curves, histology).

Where “and” joins values, the source holds several entries; their conditions need not be identical. Equal values may be shown once.

Protocol for isolated rat lungs: Rats. For the ex vivo experiments, 31 Sprague-Dawley rats (300 to 350 g) were tracheotomized and mechanically ventilated (40% oxygen in air) under isoflurane anesthesia. The experimental protocol was reviewed and approved by the Ethics Committee for Animal Research and by the Veterinary Office of our institution. The femoral vessels were cannulated for blood sampling, fluid replacement, and continuous arterial blood pressure monitoring. Following anticoagulation (1.5 IU/g i.v. heparin), 20 ml of blood were withdrawn and replaced by an equal volume of dextran-40 (Macrodex 10% in normosaline) to serve as priming volume for the isolated perfusion circuit. The heart-lung block was prepared as described by Ma et al., 2000, weighed and assigned to one of four groups. […] The lungs were suspended, mechanically ventilated, and perfused at constant pressure with autologous blood as described by Ma et al., 2000.
An inspiratory and expiratory quasi-static pressure-volume (PV) curve was performed at the end of the 2-hour reperfusion period by inflating and then deflating the lungs at a constant rate (0.3 ml/sec) using an automated infusion pump. A sigh was applied in all groups every 15 minutes to minimize atelectasis formation. The blood pH was maintained between 7.3 and 7.5 and, if necessary, corrected with sodium bicarbonate 8.4% or a change of the inspired CO2 as required by the blood gas analysis. Every 30 minutes, a blood sample was collected for blood gas analysis as well as for hematocrit and electrolyte concentration.
Inclusion criteria. Immediately following the start of reperfusion, the preparation had to fulfill three technical inclusion criteria: • 1) left atrial pressure (LAP) 5-10 mmHg; • 2) peak airway pressure (AWP) <15 cmH2O; and • 3) pulmonary blood flow (PBF) >10 ml/min. […] The included lungs were then flooded with gentle intratracheal instillation of 2 ml normal saline and the recorded variables measured for 2 subsequent hours.
Histological analysis. Random lung samples were fixed for light and electron microscopy and analyzed by pathologists blinded to the lung's protocol group assignment.

Turning to “TNF: E.coli-derived recombinant murine TNF”, the “chloride efflux (SPQ fluorescence)” value in data set [1] is “induced chloride efflux”. Besides, the “increase of alveolar liquid clearance” value in the data set with normal rats was 43%. Also, the “fluorescence quenching by brominated lipids” value in data set [2] is reported as “unable to see any fluorescence quenching”. Also, the “clearing alveolar fluid content ex vivo” value in data set [3] (after intratracheal instillation, summary in words) is listed as “capable of clearing alveolar fluid content”. Further, in data set [3] (recombinant TNF 5 μg/lung alone, listed as mTNF), the “Weight loss of ex vivo instilled rat lung over 80 min” value is 589 mg and 722 mg and 584 mg. The “lung weight change over time after alveolar flooding” value in the data set on isolated rat lungs (2 hours reperfusion after 2 ml saline, TNF 5 μg, peptides 1 mg) is on record as “no significant change in weight over time”. For the same substance, the “lung mechanics (peak AWP, Cdyn, Raw) after alveolar flooding” value in the data set on isolated rat lungs (2 hours reperfusion, TNF 5 μg, peptides 1 mg) is listed as “no difference from the saline-treated group”. For the same substance, the “lower inflection point of inspiratory quasi-static PV curve” value in the data set on isolated rat lungs (end of 2-hour reperfusion, TNF 5 μg, peptide 1 mg) came out at 20.0±0.8 cmH2O. For the same substance, in the data set on isolated rat lungs (hematoxylin-stained slices, compared to controls), the “leukocyte infiltration (lung histology)” value is recorded as “significantly increased leukocyte infiltration”. Also, the “endothelial flaps and epithelial blebs (electron microscopy)” value with isolated rat lungs (pretreated lungs after flooding and 2 hours reperfusion) is on record as “prominent numerous endothelial flaps”.
